How the values were obtained:
[1] = tested on: EIAVWYO; test: EIAV replication kinetics in equine dermal cells, RT qPCR of culture supernatants; format: cell-based, Equine infectious anemia virus; conditions: for EIAV viral replication decreased to (from 10^8) / EIAV viral replication reduced to (from 10^8): 10 μM; for EIAV viral replication decreased to (from 10^8): day 15 post infection; for EIAV viral replication reduced to (from 10^8): day 15 and 20 post infection
Description: Equine dermal cells (3×10^4 cells per well of a 96-well plate) were seeded and incubated in complete media (as described above for NEV infections) under 5% CO2 at 37° C., for 24 h to 72 hours prior to infection. The antiviral effect adefovir dipivoxil, as well as other are antiviral drugs approved by FDA or EMA such as Zidovudine (nucleoside reverse transcription inhibitor), Nevirapine (non-nucleoside reverse transcription inhibitor), Indinavir sulphate (a HIV-1 protease inhibitor), Darunavir Ethanolate (a HIV-1 protease inhibitor), Daclastavir (HCV NS5A inhibitor), Cyclosporin A (immunosuppressive agent) and the drug that is being evaluated in pre-clinical/clinical assays as antivirals, such as Tenofovir (a nucleoside reverse transcription inhibitor), was evaluated (FIGS. 4A and 4B).
The drugs mentioned above were also tested as antivirals for EIAV. For that cells were pre-treated with drugs at two different concentrations 1 or 10 μM for 1 hour in triplicates. Cells were then infected with EIAVWYO (3 MOI for 2 hours). After infection fresh media and drugs were replaced and cells incubated for 5, 10, 15 and 20 days. The EIAVWYO replication was evaluated by quantifying EIAV viral genome in culture supernatants by means of RT qPCR. FIGS. 4A and 4B show the effect of the different drugs in EIAV replication kinetics. […] Virus was only recovered at low levels from treated cells in one of three replicate at day 5 (10 viral particles/mL) and another of three replicates at day 15 (100 viral particles/mL). The differences observed between the treated and not treated infected cells were statistically significant for p<0.001.

[2] = in vitro; conditions: horse (equine)
Description: For that, ED cells (10^5 cells/cm^2) were seeded as mentioned above in 96-well plates. […] To determine drug CC50, twelve different concentrations of 4, 6, 9, 13.5, 20.250, 30.370, 45.560, 68.340, 102.520, 153.770, 230.660 and 2000 μM were performed in quintuplicates per each drug concentration. Cell viability was assessed by using the PrestoBlue reagent as mention above for IC50 analysis and incubated for 24 hours.
For that, ED cells (10^5 cells/cm^2) were seeded as mentioned above in 96-well plates. […] To determine drug CC50, ten different 1:1.3 serial dilutions from 25.39 to 350 μM were performed in quintuplicates per each drug concentration. Cell viability was assessed by using the PrestoBlue reagent as mention above for IC50 analysis and incubated for 24 hours.

[3] = tested on: EHV-1; test: EHV-1 viral particles in supernatant of ED cells by qPCR; format: cell-based, Equine herpesvirus 1; conditions: Equus caballus, 72 h, day 3 post infection
Description: (Selleckchem, Germany). The pre-treatment with the drug preceded the infection.
A standard curve of an EHV-1 synthetic DNA was used. To obtain the standard curve, seven 1:10 dilutions of the synthetic DNA in duplicates were tested in parallel. Samples were tested in triplicates. The standard curve obtained (with R2 0.995, Efficiency 91.7%) allowed us to quantify the EHV-1 viral particles produced into the cell culture media.

[4] = tested on: EHV-1; test: cells; conditions: Equus caballus, 144 h, read-out: IC50 for EHV-1 by cell viability
Description: (§6) Equine Dermal cells (ATCC CCL57) (10^5 cells/cm^2) were seeded in 96 well plates 24 to 72 hours before infection in complete media and incubated in a humid chamber at 37° C. and 5% CO2 until 95%-99% confluent monolayers were attained. Complete media was composed of DMEM medium (Gibco, Thermofisher Scientific) with 10% of Inactivated Fetal bovine serum (Gibco, Thermofisher Scientific), 1% of Glutamax (Gibco, Life Technologies) and 1% Penicilin-Streptamicin (Gibco, Thermofisher Scientific). […] (Selleckchem, Germany). The pre-treatment with the drug preceded the infection.
(§7) ED cells were pre-treated with drug for 30 minutes before infection, and treatment maintained during infection.
(§8) Cells were infected with EHV-1 at 1 MOI for 2 hours. Infective EHV-1 viral particles were produced in ED cells with an EHV-1 molecular clone purchased from ATCC (VR-2248). After infection cells were washed twice with HBSS to remove unbound virus and fresh complete media and fresh drug was replaced in each well. Treatment was maintained during 6 days without addition of fresh drug.
(§9) After 6 days post-infection reazurin-based cell viability assays (PrestoBlue, Thermofisher Scientific) were used to evaluate the increased cell numbers in the same conditions as indicated above for qPCR quantification. […] 15 μl of Prestoblue reagent was added directly to the assay wells and absorbance measured at 570 nm after 24 hours of incubation with the Prestoblue reagent. All the absorbance values were corrected by removing the baseline, absorbance values of the Prestoblue reagent incubated 24 hours without cells. The results were analysed by Prism software by using the four-parameter function (log (drug) vs. response assuming a variable slope).
(§10) Equine Dermal cells (ATCC CCL57) (10^5 cells/cm^2) were seeded in 96 well plates 24 to 72 hours before infection in complete media and incubated in a humid chamber at 37° C. and 5% CO2 until 95%-99% confluent monolayers were attained. Complete media was composed of DMEM medium (Gibco, Thermofisher Scientific) with 10% of Inactivated Fetal bovine serum (Gibco, Thermofisher Scientific), 1% of Glutamax (Gibco, Thermofisher Scientific) and 1% Penicilin-Streptamicin (Gibco, Thermofisher Scientific). […] (Selleckchem, Germany). The pre-treatment with the drug preceded the infection.

[5] = tested on: EHV-1; conditions: ED cells
Description: as §6, §7, §8, §9, §10

[6] = tested on: EHV-1; test: PrestoBlue cell viability of EHV-1 infected MacF macrophage-like cells; format: cell-based, Equine herpesvirus 1; conditions: Equus caballus, 144 h, day 6 post infection, average of two independent experiments
Description: (§1) Antiviral activity of Adefovir dipivoxil was also evaluated in macrophage like cell lines. […] (Selleckchem, Germany). The pre-treatment with the drug preceded the infection.
(§2) Infections studies, viral particle quantification and cell viability assays were performed as described above for antiviral assays in ED cells.
(§3) Antiviral activity of Tenofovir disoproxil fumarate was also evaluated in macrophage like cell lines. […] (Selleckchem, Germany). The pre-treatment with the drug preceded the infection.
(§4) EHV-1 cell infections, viral particle production and cell viability assays were assayed as described in example 5.

[7] = tested on: EHV-1; test: EHV-1 viral particles in supernatant of MacF macrophage-like cells by qPCR; format: cell-based, Equine herpesvirus 1; conditions: Equus caballus, 72 h, day 3 post infection
Description: as §1, §2, §3, §4

[8] = tested on: NEV; test: Antiviral drug screen: PrestoBlue cell viability of NEV-infected Equine Dermal cells; format: cell-based, New Equine Virus; conditions: ED cells, 9 days
Text: (§5) Complete media was composed of DMEM medium (Gibco, Life Technologies) with 10% Inactivated Fetal bovine serum (Gibco, Life Technologies), 1% Glutamax (Gibco, Life Technologies) and 1% Penicillin-Streptamicin (Gibco, Life Technologies).
The antiviral effect of adefovir dipivoxil, as well as other are antiviral drugs approved by FDA or EMA such as Zidovudine (nucleoside reverse transcription inhibitor), Nevirapine (non-nucleoside reverse transcription inhibitor), Indinavir sulphate (a HIV-1 protease inhibitor), Darunavir Ethanolate (a HIV-1 protease inhibitor), Daclastavir (HCV NS5A inhibitor), Cyclosporin A (immunosuppressive agent) and the drug that is being evaluated in pre-clinical/clinical assays as antivirals, such as Tenofovir (a nucleoside reverse transcription inhibitor), was evaluated (FIGS. 4A and 4B). Cells were pre-treated with drugs at 1 or 10 μM in quintuplicates for one hour and infected with NEV (1130 PFU per well) for 2 hours. After 2 hours fresh media with drugs was replaced. Cells were then incubated for 9 days in a humid chamber 37° C. and 5% CO2. After 9 days cellular viability of treated cells was compared to those of non infected cells and infected and not treated cells by using PrestoBlue cell viability reagent. […]

[9] = tested on: NEV; test: Dose response: PrestoBlue cell viability of NEV-infected ED cells; format: cell-based, New Equine Virus
Description: as §5
(Selleckchem, Germany). The pre-treatment with adefovir dipivoxil (Selleckchem, Germany) preceded the infection. To determine drug IC50 ten 1:2 serial dilutions ranging from 5 to 2560 nM concentrations were performed in quintuplicates for each drug concentration. ED cells were pre-treated with drug for 60 minutes before infection, and treatment maintained during infection. NEV viral particles (10 μl containing 1130 PFU) were added to the cell culture media for 2 hours. […] Eleven days after infection, cells were screened for viability by using the PrestoBlue cell viability assay (Molecular Probes, Life Technologies) accordingly to manufacturer instructions. Absorbance (570 nm) of adefovir dipivoxil treated cells was compared to those of non-infected and/or untreated NEV-infected cells.

[10] = Cytotoxicity (CC50) in MacF macrophage cell line, PrestoBlue; format: cell-based; conditions: horse (equine), MacF cells, treated for 7 days
Text: (Selleckchem, Germany) for 7 days.

[11] = tested on: EIAVWYO; test: IC50 for EIAVWYO viral replication in ED cells by RT qPCR; format: cell-based; conditions: Equine infectious anemia virus, 168 h, read-out: IC50 (EIAVWYO viral replication)
Description: Furthermore, to better evaluate the effect of the drug on EIAVWYO viral replication on ED cells, we have determined the IC50 of adefovir dipivoxil. […] (Selleckchem, Germany) for 60 minutes. The pre-treatment with Adefovir dipivoxil (Selleckchem, Germany) preceded the infection. Eleven serial dilutions ranging from 0.01 to 10,000 nM (0.01, 19.53, 39.06, 78.130, 156.250, 312.5, 625, 1250, 2500, 5000 and 10000 nM) were performed in triplicates for each drug concentration. Treatment was maintained during infection. EIAVWYO viral particles (10 μl containing 1.9×10^5 viral particles) were added in each well of a 96-well plate and incubated for 2 hours. […] For quantification, a standard curve of an EIAV plasmid DNA was used. To obtain the standard curve, seven 1:10 dilutions in duplicates were tested in parallel. Samples were tested in triplicates. The standard curve obtained (with R^2 0.994, Efficiency 96.56%) allowed us to quantify the viral particles.

[12] = tested on: NEV; test: Dose response: PrestoBlue cell viability of NEV-infected equine macrophage cell line (MacF); format: cell-based, New Equine Virus
Description: An equine macrophage cell line (MacF) was spontaneously immortalized from a NEV-seropositive horse accordingly the procedures reported in Fidalgo-Carvalho et. al, 2009.
Cells were incubated 24 to 72 hours before NEV infection until 95%-99% confluent cell monolayers were attained.
(Selleckchem, Germany), as reported above for ED cells. To determine drug IC50 in MacF cell line, eleven serial dilutions of 1:4 ranging from 0.05 nM to 28 μM were performed in quintuplicates for each drug concentration. MacF Cells were pre-treated with drug for 60 minutes before infection, and treatment was maintained during infection. NEV viral particles (10 μl containing 1130 PFU) were added to the cell culture media for 2 hours. […] Eleven days after infection, cells were screened for viability by using the PrestoBlue cell viability assay (Molecular Probes, Life Technologies) accordingly to manufacturer instructions. Absorbance (570 nm) of adefovir dipivoxil treated cells was compared to those of non-infected and/or untreated NEV infected cells.

Structure (SMILES): CC(C)(C)NC(=O)[C@@H]1CN(Cc2cccnc2)CCN1C[C@@H](O)C[C@@H](Cc1ccccc1)C(=O)N[C@H]1c2ccccc2C[C@H]1O [Indinavir]
- EIAV viral replication decreased to (from 10^8) [1]: 10^4 viral particles/mL

Structure (SMILES): CC(C)OC(=O)OCOP(=O)(CO[C@H](C)Cn1cnc2c(N)ncnc21)OCOC(=O)OC(C)C.O=C(O)/C=C/C(=O)O [tenofovir disoproxil fumarate]
- CC50 at 3 days [2]: 117 µM
- IC50 ([3]; average of four independent experiments): 7.44 µM
- IC50 [4]: 14 µM
- therapeutic index (CC50/IC50) for EHV-1 [5]: 8.334
- IC50 [6]: 22.7 µM
- IC50 ([7]; average of two independent experiments): 1.13 µM

Structure (SMILES): C[C@H](Cn1cnc2c(N)ncnc21)OCP(=O)(O)O [tenofovir, [(2R)-1-(6-aminopurin-9-yl)propan-2-yl]oxymethylphosphonic acid]
- EIAV viral replication reduced to (from 10^8) [1]: 10^5 viral particles/mL
- cell viability of NEV infected cells ([8]; drug at 10 μM): increased the cell viability of infected cells

Structure (SMILES): Cc1cn([C@H]2C[C@H](N=[N+]=[N-])[C@@H](CO)O2)c(=O)[nH]c1=O [zidovudine]
- EIAV viral replication reduced to (from 10^8) [1]: 10^5 viral particles/mL

Structure (SMILES): CC(C)(C)C(=O)OCOP(=O)(COCCn1cnc2c(N)ncnc21)OCOC(=O)C(C)(C)C [adefovir dipivoxil, 9-[2-[[bis[(pivaloyloxy)methoxy]phosphinyl]-methoxy]ethyl]adenine]
- cell viability (absorbance) compared with non-infected mock cells ([9]; 320 nM, 11 days post NEV infection): very similar absorbance values
- IC50 ([9]; Equus caballus, 264 h, 11 days after infection): 0.113 µM
- CC50 at 6 days ([2]; Equine Dermal (ED) cells (ATCC CCL57)): 142 µM
- CC50 at 7 days [10]: 207 µM
- effect on EIAV replication ([1]; ED cells, 1 or 10 μM, single dose, up to 20 days): blocked the EIAV replication
- virus recovered from treated cells ([1]; day 5, one of three replicates): 10 viral particles/mL
- virus recovered from treated cells ([1]; day 15, one of three replicates): 100 viral particles/mL
- IC50 ([3]; three independent experiments): 0.00442 µM
- IC50 [4]: 0.123 µM
- therapeutic index (CC50/IC50) for EHV-1 [5]: 1162.3
- IC50 [6]: 0.172 µM
- IC50 [11]: 0.00338 µM
- cell viability (absorbance) compared with Mock MacF cells ([12]; 14 μM, 11 days post NEV infection): very similar (or even slightly higher)
- IC50 ([12]; Equus caballus, Macrophage, 264 h, MacF cells, 11 days after infection): 3.83 µM
- IC50 ([7]; average of three independent experiments): 0.142 µM
- cellular viability of NEV infected cells ([8]; drug at 1 or 10 μM, vs non infected and untreated infected cells): completely reverted the effect of NEV on cellular viability

Structure (SMILES): CC(C)CN(C[C@@H](O)[C@H](Cc1ccccc1)NC(=O)O[C@H]1CO[C@H]2OCC[C@H]21)S(=O)(=O)c1ccc(N)cc1 [Darunavir]
- EIAV viral replication decreased to (from 10^8) [1]: 10^3 viral particles/mL

From patent US20190216831A1 (priority 2015, published 2019)
